According to publication PMC5909127, “Optimization of a “bump-and-hole” approach to allele-selective BET bromodomain inhibition” (Chemical Science, 2018):

Experiments:
BRD4 BD2 L/V [1] = biological target: T1, BRD4 BD2 L/V (Homo sapiens, UniProt O60885, L387V); assay: ITC; assay type: binding
BRD4 BD1 WT [2] = biological target: T2, BRD4 BD1 WT (Homo sapiens, UniProt O60885); assay: ITC; assay type: binding; details: ITC, 30°C; read-out: Kd BRD4 BD1 WT
BRD2 BD1 WT [3] = biological target: T3, BRD2 BD1 WT (Homo sapiens, UniProt P25440); assay: competitive AlphaLISA; assay type: binding; details: read-out: AlphaLISA pIC50 Value BRD2 BD1 WT (converted)
T3 sequence (P25440 71-176): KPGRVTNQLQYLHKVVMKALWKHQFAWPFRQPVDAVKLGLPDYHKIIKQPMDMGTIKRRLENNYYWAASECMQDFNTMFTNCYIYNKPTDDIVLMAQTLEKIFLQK

BRD2 BD1 L/V [4] = biological target: T4, BRD2 BD1 L/V (Homo sapiens, UniProt P25440, L110V); assay: ITC; assay type: binding
T4 sequence (P25440 71-176 L110V limits assumed): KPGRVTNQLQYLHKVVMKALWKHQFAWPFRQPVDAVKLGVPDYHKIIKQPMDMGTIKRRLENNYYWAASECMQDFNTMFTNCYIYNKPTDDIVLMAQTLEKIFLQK

BRD4 BD1 L/V [5] = biological target: T5, BRD4 BD1 L/V (Homo sapiens, UniProt O60885, L94V); assay: ITC; assay type: binding
BRD3 BD1 WT [6] = biological target: T6, BRD3 BD1 WT (Homo sapiens, UniProt Q15059); assay: ITC; assay type: binding; details: ITC, 30°C; read-out: Kd BRD3 BD1 WT
T6 sequence (Q15059 24-144): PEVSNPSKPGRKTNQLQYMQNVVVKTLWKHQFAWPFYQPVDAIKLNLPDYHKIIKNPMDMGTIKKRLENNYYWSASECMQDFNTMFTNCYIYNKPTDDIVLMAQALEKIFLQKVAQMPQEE

BRD4 BD1 WT [7] = biological target: T2, BRD4 BD1 WT; assay: competitive AlphaLISA; assay type: binding; details: read-out: AlphaLISA pIC50 Value BRD4 BD1 WT (converted)
BRD2 BD2 WT [8] = biological target: T7, BRD2 BD2 WT (Homo sapiens, UniProt P25440); assay: ITC; assay type: binding; details: ITC, 30°C; read-out: Kd BRD2 BD2 WT
T7 sequence (P25440 344-455): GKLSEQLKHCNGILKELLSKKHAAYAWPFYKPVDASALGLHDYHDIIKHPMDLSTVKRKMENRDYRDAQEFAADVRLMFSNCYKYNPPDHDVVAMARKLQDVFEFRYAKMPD

BRD3 BD1 L/V [9] = biological target: T8, BRD3 BD1 L/V (Homo sapiens, UniProt Q15059, L70V); assay: competitive AlphaLISA; assay type: binding; details: read-out: AlphaLISA pIC50 Value BRD3 BD1 L/V (converted)
T8 sequence (Q15059 24-144 L70V limits assumed): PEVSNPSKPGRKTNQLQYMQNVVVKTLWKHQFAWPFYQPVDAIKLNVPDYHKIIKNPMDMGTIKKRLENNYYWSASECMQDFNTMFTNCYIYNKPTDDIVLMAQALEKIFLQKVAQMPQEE

BRD4 BD2 WT [10] = biological target: T9, BRD4 BD2 WT (Homo sapiens, UniProt O60885); assay: competitive AlphaLISA; assay type: binding; details: read-out: AlphaLISA pIC50 Value BRD4 BD2 WT (converted)
BRD3 BD1 WT [11] = biological target: T6, BRD3 BD1 WT; assay: competitive AlphaLISA; assay type: binding; details: read-out: AlphaLISA pIC50 Value BRD3 BD1 WT (converted)
BRD2 BD1 L/V [12] = biological target: T4, BRD2 BD1 L/V; assay: competitive AlphaLISA; assay type: binding; details: read-out: AlphaLISA pIC50 Value BRD2 BD1 L/V (converted)
BRD3 BD2 L/V [13] = biological target: T10, BRD3 BD2 L/V (Homo sapiens, UniProt Q15059, L345V); assay: ITC; assay type: binding
T10 sequence (Q15059 306-416 L345V limits assumed): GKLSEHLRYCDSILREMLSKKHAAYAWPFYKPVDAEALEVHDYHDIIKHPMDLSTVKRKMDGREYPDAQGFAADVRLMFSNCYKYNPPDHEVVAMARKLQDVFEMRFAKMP

BRD4 BD2 L/V [14] = biological target: T1, BRD4 BD2 L/V; assay: competitive AlphaLISA; assay type: binding; details: read-out: AlphaLISA pIC50 Value BRD4 BD2 L/V (converted)
in vitro [15] = details: PAMPA, pH 7.4
BRD3 BD1 L/V [16] = biological target: T8, BRD3 BD1 L/V; assay: ITC; assay type: binding
BRDT BD2 WT = BRDT BD2 WT (Homo sapiens, UniProt Q58F21); assay: competitive AlphaLISA; assay type: binding; details: read-out: AlphaLISA pIC50 Value BRDT BD2 WT (converted)
BRD2 BD1 WT [17] = biological target: T3, BRD2 BD1 WT; assay: ITC; assay type: binding; details: ITC, 30°C; read-out: Kd BRD2 BD1 WT
[18] = test system: L/V BET bromodomains (BD1 and BD2 of BRD2, BRD3 and BRD4); assay: competitive AlphaLISA (Bio-JQ1 displacement); assay type: binding, human
[19] = test system: L/V somatic BET bromodomains; assay: ITC
BRD2 BD2 L/V [20] = biological target: T11, BRD2 BD2 L/V (Homo sapiens, UniProt P25440, L383V); assay: competitive AlphaLISA; assay type: binding; details: read-out: AlphaLISA pIC50 Value BRD2 BD2 L/V (converted)
T11 sequence (P25440 344-455 L383V): as the sequence (P25440 344-455) above, with L40V counted along it

BRD3 BD2 WT [21] = biological target: T12, BRD3 BD2 WT (Homo sapiens, UniProt Q15059); assay: competitive AlphaLISA; assay type: binding; details: read-out: AlphaLISA pIC50 Value BRD3 BD2 WT (converted)
T12 sequence (Q15059 306-416): as the sequence (Q15059 306-416 L345V limits assumed) above, with V40L counted along it

BRDT BD1 WT = BRDT BD1 WT (Homo sapiens, UniProt Q58F21); assay: competitive AlphaLISA; assay type: binding; details: read-out: AlphaLISA pIC50 Value BRDT BD1 WT (converted)
BRDT BD2 L/V = BRDT BD2 L/V (Homo sapiens, UniProt Q58F21, L306V); assay: competitive AlphaLISA; assay type: binding; details: read-out: AlphaLISA pIC50 Value BRDT BD2 L/V (converted)
[22] = test system: WT somatic BET bromodomains; assay: ITC
BRD2 BD2 WT [23] = biological target: T7, BRD2 BD2 WT; assay: competitive AlphaLISA; assay type: binding; details: read-out: AlphaLISA pIC50 Value BRD2 BD2 WT (converted)
BRD4 BD1 L/V [24] = biological target: T5, BRD4 BD1 L/V; assay: competitive AlphaLISA; assay type: binding; details: read-out: AlphaLISA pIC50 Value BRD4 BD1 L/V (converted)
in vitro [25] = details: BALB/c, mouse, plasma, pH 7.4
BRD2 BD2 L/V [26] = biological target: T11, BRD2 BD2 L/V; assay: ITC; assay type: binding
BRD3 BD2 L/V [27] = biological target: T10, BRD3 BD2 L/V; assay: competitive AlphaLISA; assay type: binding; details: read-out: AlphaLISA pIC50 Value BRD3 BD2 L/V (converted)
[28] = biological target: WT BET bromodomains (BD1 and BD2 of BRD2, BRD3 and BRD4); assay: competitive AlphaLISA (Bio-JQ1 displacement); assay type: binding, human; details: mean and SD of all somatic bromodomains; active enantiomer concentration
BRD3 BD2 WT [29] = biological target: T12, BRD3 BD2 WT; assay: ITC; assay type: binding; details: ITC, 30°C; read-out: Kd BRD3 BD2 WT
BRD4 BD2 WT [30] = biological target: T9, BRD4 BD2 WT; assay: ITC; assay type: binding; details: ITC, 30°C; read-out: Kd BRD4 BD2 WT
[31] = mean and SD of all somatic bromodomains

Compound: CCNC(=O)[C@H](CC)[C@@H]1N=C(c2ccc(Cl)cc2)c2cc(OC)ccc2-n2c(C)nnc21 (relative stereo) [Compound 17]
- ΔH BRD4 BD2 L/V (BRD4 BD2 L/V [1]; ITC): -3.7 kcal/mol
- N BRD4 BD2 L/V (BRD4 BD2 L/V [1]; ITC stoichiometry): 0.99
- Kd (BRD4 BD2 L/V [1]; ITC, 30°C, read-out: Kd BRD4 BD2 L/V): 1 µM
- Kd (BRD4 BD1 WT [2]): > 60 µM
- IC50 (BRD2 BD1 WT [3]): 63.1 µM
- ΔH BRD2 BD1 L/V (BRD2 BD1 L/V [4]; ITC): -10.2 kcal/mol
- N BRD2 BD1 L/V (BRD2 BD1 L/V [4]; ITC stoichiometry): 0.97
- Kd (BRD2 BD1 L/V [4]; ITC, 30°C, read-out: Kd BRD2 BD1 L/V): 0.96 µM
- ΔH BRD4 BD1 L/V (BRD4 BD1 L/V [5]; ITC): -5.9 kcal/mol
- N BRD4 BD1 L/V (BRD4 BD1 L/V [5]; ITC stoichiometry): 0.99
- Kd (BRD4 BD1 L/V [5]; ITC, 30°C, read-out: Kd BRD4 BD1 L/V): 1.6 µM
- Kd (BRD3 BD1 WT [6]): > 60 µM
- IC50 (BRD4 BD1 WT [7]): 50.1 µM
- Kd (BRD2 BD2 WT [8]): > 60 µM
- IC50 (BRD3 BD1 L/V [9]): 0.501 µM
- IC50 (BRD4 BD2 WT [10]): 63.1 µM
- IC50 (BRD3 BD1 WT [11]): 31.6 µM
- IC50 (BRD2 BD1 L/V [12]): 3.16 µM
- ΔH BRD3 BD2 L/V (BRD3 BD2 L/V [13]; ITC): -4.7 kcal/mol
- N BRD3 BD2 L/V (BRD3 BD2 L/V [13]; ITC stoichiometry): 0.68
- Kd (BRD3 BD2 L/V [13]; ITC, 30°C, read-out: Kd BRD3 BD2 L/V): 0.61 ± 0.09 µM
- IC50 (BRD4 BD2 L/V [14]): 2 µM
- Papp (in vitro [15]): 4.5 ×10⁻⁶ cm/s
- ΔH BRD3 BD1 L/V (BRD3 BD1 L/V [16]; ITC): -9.4 kcal/mol
- N BRD3 BD1 L/V (BRD3 BD1 L/V [16]; ITC stoichiometry): 1.07
- Kd (BRD3 BD1 L/V [16]; ITC, 30°C, read-out: Kd BRD3 BD1 L/V): 0.74 µM
- IC50 (BRDT BD2 WT): 79.4 µM
- Kd (BRD2 BD1 WT [17]): > 60 µM
- AlphaLISA pIC50 ± SD Δ ([18]; L/V minus WT): 1.5 ± 0.2
- AlphaLISA pIC50 ± SD L/V ([18]; mean and SD of all somatic bromodomains, active enantiomer concentration): 5.9 ± 0.3
- ITC pKd ± SD Δ ([19]; L/V minus WT): >1.8 ± 0.2
- ITC pKd ± SD L/V [19, 31]: 6.0 ± 0.2
- IC50 (BRD2 BD2 L/V [20]): 1.26 µM
- IC50 (BRD3 BD2 WT [21]): 39.8 µM
- IC50 (BRDT BD1 WT): 63.1 µM
- IC50 (BRDT BD2 L/V): 5.01 µM
- binding to any WT BET bromodomain ([22]; ITC): no detectable binding
- ITC pKd ± SD WT [22, 31]: <4.2
- IC50 (BRD2 BD2 WT [23]): 25.1 µM
- IC50 (BRD4 BD1 L/V [24]): 2 µM
- half-life at 50 µM (in vitro [25]): > 3 h
- ΔH BRD2 BD2 L/V (BRD2 BD2 L/V [26]; ITC): -5.3 kcal/mol
- N BRD2 BD2 L/V (BRD2 BD2 L/V [26]; ITC stoichiometry): 0.94
- Kd (BRD2 BD2 L/V [26]; ITC, 30°C, read-out: Kd BRD2 BD2 L/V): 1.3 µM
- IC50 (BRD3 BD2 L/V [27]): 0.794 µM
- AlphaLISA pIC50 ± SD WT [28]: 4.4 ± 0.1
- Kd (BRD3 BD2 WT [29]): > 60 µM
- Kd (BRD4 BD2 WT [30]): > 60 µM
